System: 415267-285-R-J2-PDC complex spheroid viability
Experiment: Anticancer human tumor 415267-285-R-J2-PDC patient-derived breast carcinoma cell line growth inhibition [POLQ]
Details: for IC50: curve of first compound; for viability, T/C: stronger effect = lower value
Description: Multicellular complex tumor spheroid response to Polymerase (POL) inhibitors (novobiocin, ART-558, RP6685) in combination with a variety of drugs and investigational agents in selected tumor cell lines
The POL inhibitors (novobiocin, ART-558, and RP6685) were evaluated both individually and in combination with standard of care and investigational anticancer small molecules within a complex spheroid model of solid tumors. . Complex spheroids include a stromal component modeled by human endothelial cells (HUVEC) and fibroblasts modeled by human mesenchymal stem cells (MSCs). The concentration ranges selected for each drug and investigational agent were based upon clinically achievable concentrations if the clinical Cmax of the agent was known.
Compounds. The drugs and investigational agents: novobiocin (NSC847541), ART-558 (NSC835418), RP-6685 (NSC848927), peposertib (NSC802822), ceralasertib (NSC780249), elimusertib (NSC800525), camonsertib (NSC841442), AZD-1390 (NSC803789), olaparib (NSC753686), talazoparib (NSC767125), rucaparib (NSC756644), sotorasib (NSC818433), MRTX-1133 (NSC836407), SN-38 (NSC673596), topotecan (NSC609699), epotoside (NSC141540), doxorubicin (NSC123127), gemcitabine (NSC613327), 5-fluorouracil (NSC19893), paclitaxel (NSC125973), vemurafenib (NSC761431), MSA-2 (NSC828583), SN-011 (NSC837082), adavosertib (NSC754352), prexasertib (NSC758257), carboplatin (NSC241240) and oxaliplatin (NSC266046), were obtained from the National Cancer Institute (NCI) Developmental Therapeutics Program Chemical Repository (21). The FDA-approved anticancer drug set is available from the Developmental Therapeutics Program at https://dtp.cancer.gov/organization/dscb/obtaining/. […] The stock solutions were prepared in dimethyl sulfoxide (DMSO, Sigma-Aldrich, St. Louis, MO, cat. D2650), except for the platinum compounds which were prepared in saline (Quality Biological, Gaithersburg, MD, cat. 114-055-101), at 800-fold the tested concentration and stored at -70 degrees C prior to their use. All drugs and investigational agents were tested over a range starting from a high concentration at or near the clinical Cmax and decreasing in half-log increments. If the clinical Cmax for an agent had not been determined, the highest concentration tested was 10 microM, except for SN-38, which was tested at a high concentration of 1 microM.
Cell Culture. All cells were maintained in an incubator at 37 degrees C and 5% CO2 with 95% humidity. The PDC lines were cultured according to standard operating procedures established by the NCI PDMR (https://pdmr.cancer.gov). Table 3 of the manuscript, lists the cell lines along with the number of the three cell types plated to form the mct-spheroids and media for tumor cell growth. After thawing, all PDC lines, except 997537-175-T-J1-PDC and 415267-285-R-J2-PDC, were cultured in Matrigel-coated flasks prepared with a working solution of 1X Ham's F-12 nutrient mix, without supplementation (Thermo Fisher Scientific, cat. 11765054), 100 U/mL penicillin-streptomycin (Thermo Fisher Scientific, cat. 15140122), and 2.5% Matrigel (Corning Inc., Corning, NY, cat. 354248) for the first three passages. The two PDC lines 997537-175-T-J1-PDC and 415267-285-R-J2-PDC were cultured on uncoated flasks. The 857933-349-R-J2-PDC line was cultured in 6C/Colon 1B media containing advanced DMEM/F-12 (Thermo Fisher Scientific, cat. 12634028), 10 mM HEPES (Thermo Fisher Scientific, cat. 15630080), 1X GlutaMAX supplement (Thermo Fisher Scientific, cat. 35050061), 0.1 mg/mL primocin (InvivoGen, San Diego, CA, cat. ant-pm-2), 10% defined fetal bovine serum, heat inactivated (HyClone Laboratories Inc., Logan, UT, cat. SH30070.03HI), 50% L-WRN conditioned media (ATCC, cat. CRL-3276), 1.25 mM N-Acetyl-L-cysteine (Sigma-Aldrich, cat. A9165), 10 mM nicotinamide (Sigma-Aldrich, cat. N0636), 1X B-27 supplement (Thermo Fisher Scientific, cat. 17504044), 1X N-2 supplement (Thermo Fisher Scientific, cat. […]

[1] = second compound 0.0316 µM, first compound 0.0316 µM
[2] = second compound 0.0316 µM, first compound 0.1 µM
[3] = second compound 0.0316 µM, first compound 0.316 µM
[4] = second compound 0.0316 µM, first compound 1 µM
[5] = second compound 0.0316 µM, first compound 3.16 µM
[6] = second compound 0.0316 µM, first compound 10 µM
[7] = second compound 0.1 µM, first compound 0.0316 µM
[8] = second compound 0.1 µM, first compound 0.1 µM
[9] = second compound 0.1 µM, first compound 0.316 µM
[10] = second compound 0.1 µM, first compound 1 µM
[11] = second compound 0.1 µM, first compound 3.16 µM
[12] = second compound 0.1 µM, first compound 10 µM
[13] = second compound 0.316 µM, first compound 0.0316 µM
[14] = second compound 0.316 µM, first compound 0.1 µM
[15] = second compound 0.316 µM, first compound 0.316 µM
[16] = second compound 0.316 µM, first compound 1 µM
[17] = second compound 0.316 µM, first compound 3.16 µM
[18] = second compound 0.316 µM, first compound 10 µM
[19] = second compound 1 µM, first compound 0.0316 µM
[20] = second compound 1 µM, first compound 0.1 µM
[21] = second compound 1 µM, first compound 0.316 µM
[22] = second compound 1 µM, first compound 1 µM
[23] = second compound 1 µM, first compound 3.16 µM
[24] = second compound 1 µM, first compound 10 µM
[25] = second compound 3.16 µM, first compound 0.0316 µM
[26] = second compound 3.16 µM, first compound 0.1 µM
[27] = second compound 3.16 µM, first compound 0.316 µM
[28] = second compound 3.16 µM, first compound 1 µM
[29] = second compound 3.16 µM, first compound 3.16 µM
[30] = second compound 3.16 µM, first compound 10 µM
[31] = second compound 10 µM, first compound 0.0316 µM
[32] = second compound 10 µM, first compound 0.1 µM
[33] = second compound 10 µM, first compound 0.316 µM
[34] = second compound 10 µM, first compound 1 µM
[35] = second compound 10 µM, first compound 3.16 µM
[36] = second compound 10 µM, first compound 10 µM
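Also: spheroids exposed to compounds for one week before readout.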
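For viability, T/C in this document: luminescence used as stand-in measure of viable cells; 100% = DMSO vehicle control viability.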

`COc1cc2cc(C(=O)CCC(=O)O)sc2cc1OC` + COC1C(OC(N)=O)C(O)C(Oc2ccc3c(O)c(NC(=O)c4ccc(O)c(CC=C(C)C)c4)c(=O)oc3c2C)OC1(C)C was tested, and the IC50 (second compound 0.0316 µM) was greater than 10000 nM, the IC50 (second compound 0.1 µM) was greater than 10000 nM and the IC50 (second compound 0.316 µM) was greater than 10000 nM. For the same compound, the IC50 (second compound 1 µM) was greater than 10000 nM, the IC50 (second compound 3.16 µM) was greater than 10000 nM and the IC50 (second compound 10 µM) was greater than 10000 nM. It also gave a viability, T/C [1] of 99.7%, a viability, T/C [2] of 104% and a viability, T/C [3] of 101%. It also gave a viability, T/C [4] of 104%, a viability, T/C [5] of 103% and a viability, T/C [6] of 102%. It also gave a viability, T/C [7] of 102%, a viability, T/C [8] of 106% and a viability, T/C [9] of 97.7%. For the same compound, the viability, T/C [10] was 107%, the viability, T/C [11] was 102% and the viability, T/C [12] was 109%. The viability, T/C [13] was 107%, the viability, T/C [14] was 97.3% and the viability, T/C [15] was 101%. It also gave a viability, T/C [16] of 98.6%, a viability, T/C [17] of 117% and a viability, T/C [18] of 105%. It also gave a viability, T/C [19] of 98.7%, a viability, T/C [20] of 111% and a viability, T/C [21] of 109%. It also gave a viability, T/C [22] of 107%, a viability, T/C [23] of 104% and a viability, T/C [24] of 106%. The viability, T/C [25] was 96.1%, the viability, T/C [26] was 105% and the viability, T/C [27] was 101%. For the same compound, the viability, T/C [28] was 113%, the viability, T/C [29] was 96% and the viability, T/C [30] was 98.1%. It also gave a viability, T/C [31] of 101%, a viability, T/C [32] of 109% and a viability, T/C [33] of 102%. The viability, T/C [34] was 102%, the viability, T/C [35] was 96.7% and the viability, T/C [36] was 104%.
For `O=c1[nH]cc(F)c(=O)[nH]1` + Cc1cccc(N(C)C(=O)C2C(O)CCN2c2nc(C)cc(C(F)(F)F)c2C#N)c1, the IC50 (second compound 0.0316 µM) was 222 nM, the IC50 (second compound 0.1 µM) was 207 nM and the IC50 (second compound 0.316 µM) was 203 nM. For the same compound, the IC50 (second compound 1 µM) was 181 nM, the IC50 (second compound 3.16 µM) was 192 nM and the IC50 (second compound 10 µM) was 179 nM. The viability, T/C [1] was 87.3%, the viability, T/C [2] was 83.9% and the viability, T/C [3] was 35.1%. It also gave a viability, T/C [4] of 30.1%, a viability, T/C [5] of 27.6% and a viability, T/C [6] of 43%. For the same compound, the viability, T/C [7] was 97.1%, the viability, T/C [8] was 72.6% and the viability, T/C [9] was 37.3%. It also gave a viability, T/C [10] of 27.2%, a viability, T/C [11] of 28% and a viability, T/C [12] of 39%. The viability, T/C [13] was 98.8%, the viability, T/C [14] was 72% and the viability, T/C [15] was 36.9%. It also gave a viability, T/C [16] of 26.6%, a viability, T/C [17] of 26.8% and a viability, T/C [18] of 36.1%. The viability, T/C [19] was 100%, the viability, T/C [20] was 64.8% and the viability, T/C [21] was 36.7%. For the same compound, the viability, T/C [22] was 28.5%, the viability, T/C [23] was 25.6% and the viability, T/C [24] was 35.4%. It also gave a viability, T/C [25] of 95.8%, a viability, T/C [26] of 67.9% and a viability, T/C [27] of 36.6%. The viability, T/C [28] was 28.8%, the viability, T/C [29] was 33.5% and the viability, T/C [30] was 33.6%. It also gave a viability, T/C [31] of 92.1%, a viability, T/C [32] of 64.5% and a viability, T/C [33] of 36.3%. For the same compound, the viability, T/C [34] was 26.8%, the viability, T/C [35] was 24.7% and the viability, T/C [36] was 29.4%.

— PubChem BioAssay AID1963847 (Molecular Pharmacology Branch, DTP, NCI, 2024)
